Results published in the NIST ThermoML archive (doi:10.1021/je3011979).

Key:
[1] = xn = mol fraction of the nth substance listed; details: 101 kPa, Liquid, Vibrating tube method
[2] = excess molar enthalpy (molar enthalpy of mixing); xn = mol fraction of the nth substance listed; details: 101 kPa, Liquid, Calvet calorimetry

CCCOC(C)=O [propyl ethanoate] + CCCCCC
Details | excess molar enthalpy [kcal/mol] | mass density [kg/m3]
[1], 291.15 K, x1 = 0.012 | – | 663.4
[1], 291.15 K, x1 = 0.0372 | – | 668
[1], 291.15 K, x1 = 0.0924 | – | 678.5
[1], 291.15 K, x1 = 0.1648 | – | 692.7
[1], 291.15 K, x1 = 0.2357 | – | 707
[1], 291.15 K, x1 = 0.3085 | – | 722.2
[1], 291.15 K, x1 = 0.3804 | – | 737.7
[1], 291.15 K, x1 = 0.442 | – | 751.4
[1], 291.15 K, x1 = 0.5117 | – | 767.2
[1], 291.15 K, x1 = 0.5781 | – | 782.6
[1], 291.15 K, x1 = 0.64 | – | 797.3
[1], 291.15 K, x1 = 0.702 | – | 812.3
[1], 291.15 K, x1 = 0.7697 | – | 829.1
[1], 291.15 K, x1 = 0.8208 | – | 842.2
[1], 291.15 K, x1 = 0.8835 | – | 858.4
[1], 291.15 K, x1 = 0.9247 | – | 869.3
[1], 291.15 K, x1 = 1 | – | 889.6
[1], 298.15 K, x1 = 0.0175 | – | 658
[1], 298.15 K, x1 = 0.035 | – | 661.2
[1], 298.15 K, x1 = 0.0831 | – | 670.3
[1], 298.15 K, x1 = 0.1535 | – | 683.9
[1], 298.15 K, x1 = 0.2218 | – | 697.6
[1], 298.15 K, x1 = 0.2836 | – | 710.3
[1], 298.15 K, x1 = 0.3539 | – | 724.9
[1], 298.15 K, x1 = 0.4197 | – | 739.4
[1], 298.15 K, x1 = 0.4795 | – | 752.7
[1], 298.15 K, x1 = 0.5417 | – | 766.9
[1], 298.15 K, x1 = 0.604 | – | 781.5
[1], 298.15 K, x1 = 0.6583 | – | 794.5
[1], 298.15 K, x1 = 0.7242 | – | 810.6
[1], 298.15 K, x1 = 0.7772 | – | 823.9
[1], 298.15 K, x1 = 0.8357 | – | 838.9
[1], 298.15 K, x1 = 0.8934 | – | 853.9
[1], 298.15 K, x1 = 0.9187 | – | 860.5
[1], 298.15 K, x1 = 0.9749 | – | 875.7
[1], 298.15 K, x1 = 1 | – | 882.5
[1], 318.15 K, x1 = 0.0304 | – | 641.7
[1], 318.15 K, x1 = 0.0796 | – | 650.7
[1], 318.15 K, x1 = 0.1381 | – | 661.7
[1], 318.15 K, x1 = 0.2079 | – | 675.3
[1], 318.15 K, x1 = 0.2642 | – | 686.6
[1], 318.15 K, x1 = 0.3318 | – | 700.5
[1], 318.15 K, x1 = 0.3997 | – | 714.9
[1], 318.15 K, x1 = 0.4505 | – | 725.9
[1], 318.15 K, x1 = 0.5124 | – | 739.7
[1], 318.15 K, x1 = 0.5708 | – | 752.9
[1], 318.15 K, x1 = 0.622 | – | 764.8
[1], 318.15 K, x1 = 0.6815 | – | 778.9
[1], 318.15 K, x1 = 0.7426 | – | 793.7
[1], 318.15 K, x1 = 0.7992 | – | 807.7
[1], 318.15 K, x1 = 0.8648 | – | 824.4
[1], 318.15 K, x1 = 0.9227 | – | 839.3
[1], 318.15 K, x1 = 1 | – | 859.8
[1], 328.15 K, x1 = 0.0253 | – | 631.3
[1], 328.15 K, x1 = 0.0749 | – | 640.2
[1], 328.15 K, x1 = 0.1369 | – | 651.6
[1], 328.15 K, x1 = 0.2052 | – | 664.7
[1], 328.15 K, x1 = 0.2719 | – | 677.8
[1], 328.15 K, x1 = 0.3322 | – | 690.1
[1], 328.15 K, x1 = 0.3986 | – | 704
[1], 328.15 K, x1 = 0.4614 | – | 717.6
[1], 328.15 K, x1 = 0.5209 | – | 730.7
[1], 328.15 K, x1 = 0.5809 | – | 744.3
[1], 328.15 K, x1 = 0.62 | – | 753.3
[1], 328.15 K, x1 = 0.6944 | – | 770.8
[1], 328.15 K, x1 = 0.7605 | – | 786.8
[1], 328.15 K, x1 = 0.8114 | – | 799.4
[1], 328.15 K, x1 = 0.8707 | – | 814.4
[1], 328.15 K, x1 = 0.9235 | – | 828
[1], 328.15 K, x1 = 1 | – | 848.3
[2], 291.15 K, x1 = 0.074 | 0.0657 | –
[2], 291.15 K, x1 = 0.1514 | 0.13 | –
[2], 291.15 K, x1 = 0.2307 | 0.179 | –
[2], 291.15 K, x1 = 0.3056 | 0.2204 | –
[2], 291.15 K, x1 = 0.3758 | 0.2481 | –
[2], 291.15 K, x1 = 0.4417 | 0.2598 | –
[2], 291.15 K, x1 = 0.4984 | 0.2651 | –
[2], 291.15 K, x1 = 0.5492 | 0.2605 | –
[2], 291.15 K, x1 = 0.5528 | 0.2598 | –
[2], 291.15 K, x1 = 0.6101 | 0.2459 | –
[2], 291.15 K, x1 = 0.6705 | 0.2275 | –
[2], 291.15 K, x1 = 0.7361 | 0.1953 | –
[2], 291.15 K, x1 = 0.8064 | 0.157 | –
[2], 291.15 K, x1 = 0.8762 | 0.111 | –
[2], 291.15 K, x1 = 0.9422 | 0.0588 | –
[2], 298.15 K, x1 = 0.0319 | 0.0246 | –
[2], 298.15 K, x1 = 0.0736 | 0.0648 | –
[2], 298.15 K, x1 = 0.145 | 0.126 | –
[2], 298.15 K, x1 = 0.2223 | 0.178 | –
[2], 298.15 K, x1 = 0.3011 | 0.2225 | –
[2], 298.15 K, x1 = 0.366 | 0.2481 | –
[2], 298.15 K, x1 = 0.4223 | 0.2639 | –
[2], 298.15 K, x1 = 0.503 | 0.2682 | –
[2], 298.15 K, x1 = 0.559 | 0.2615 | –
[2], 298.15 K, x1 = 0.6073 | 0.2495 | –
[2], 298.15 K, x1 = 0.6518 | 0.234 | –
[2], 298.15 K, x1 = 0.7091 | 0.2089 | –
[2], 298.15 K, x1 = 0.7653 | 0.177 | –
[2], 298.15 K, x1 = 0.8334 | 0.136 | –
[2], 298.15 K, x1 = 0.8989 | 0.0899 | –
[2], 298.15 K, x1 = 0.9494 | 0.0466 | –
[2], 318.15 K, x1 = 0.0748 | 0.0691 | –
[2], 318.15 K, x1 = 0.1298 | 0.122 | –
[2], 318.15 K, x1 = 0.2004 | 0.176 | –
[2], 318.15 K, x1 = 0.2777 | 0.2249 | –
[2], 318.15 K, x1 = 0.3479 | 0.2529 | –
[2], 318.15 K, x1 = 0.4119 | 0.2674 | –
[2], 318.15 K, x1 = 0.4746 | 0.2739 | –
[2], 318.15 K, x1 = 0.5084 | 0.2729 | –
[2], 318.15 K, x1 = 0.5582 | 0.2694 | –
[2], 318.15 K, x1 = 0.6039 | 0.2581 | –
[2], 318.15 K, x1 = 0.6543 | 0.2419 | –
[2], 318.15 K, x1 = 0.7123 | 0.2185 | –
[2], 318.15 K, x1 = 0.7753 | 0.185 | –
[2], 318.15 K, x1 = 0.8288 | 0.147 | –
[2], 318.15 K, x1 = 0.8906 | 0.0997 | –
[2], 318.15 K, x1 = 0.9452 | 0.0535 | –
